Reference: patent publication US6737383B1, “Herbicidal oxadiazolidines” (priority 1999, dated 2004)

Tests used:
soybean = assay: Test B pre/postemergence soybean; type: in vivo, Glycine max; conditions: for Plant response rating, Soybean: scale of 0 to 10 where 0 is no effect and 10 is complete control
Summary of the method: (§1)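 Herbicidal effect was estimated by eye on a ten-point control scale after plants spent twelve to sixteen days in a greenhouse following soil or foliar treatment. Foliar sprays targeted plants at one to four leaves; all doses were formulated in a non-phytotoxic solvent with surfactant.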

surinam grass = assay: Test B pre/postemergence surinam grass; type: in vivo, Brachiaria decumbens
Summary of the method: as §1

rape = assay: Test B pre/postemergence rape; type: in vivo, Brassica napus; conditions: for Plant response rating, Rape: scale of 0 to 10 where 0 is no effect and 10 is complete control
Summary of the method: as §1

giant foxtail = assay: Test B pre/postemergence giant foxtail; type: in vivo, Setaria faberii
Summary of the method: as §1

bamyardgrass = assay: Test B flood test barnyardgrass; type: in vivo, Echinochloa crus-galli
Summary of the method: (§2)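 Read-out is a visual response score from 0 (no effect) to 10 (complete control), assigned by comparison with untreated controls. Treatment was applied at the 2-leaf stage, and plants stayed in the greenhouse for twelve to sixteen days before scoring.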

rice = assay: Test B flood test rice; type: in vivo, Oryza sativa
Summary of the method: as §2

smallflower flatsedge = assay: Test B flood test smallflower flatsedge; type: in vivo, Cyperus difformis
Summary of the method: as §2

cocklebur = assay: Test B pre/postemergence cocklebur; type: in vivo, Xanthium strumarium
Summary of the method: as §1

corn = assay: Test B pre/postemergence corn; type: in vivo, Zea mays
Summary of the method: as §1

crabgrass = assay: Test B pre/postemergence crabgrass; type: in vivo, Digitaria sanguinalis
Summary of the method: as §1

pigweed = assay: Test B pre/postemergence pigweed; type: in vivo, Amaranthus retroflexus; conditions: for Plant response rating, Redroot pigweed: scale of 0 to 10 where 0 is no effect and 10 is complete control
Summary of the method: as §1

sugar beet = assay: Test B pre/postemergence sugar beet; type: in vivo, Beta vulgaris; conditions: for Plant response rating, Sugarbeets: scale of 0 to 10 where 0 is no effect and 10 is complete control
Summary of the method: as §1

purple nutsedge = assay: Test B pre/postemergence purple nutsedge; type: in vivo, Cyperus rotundus; conditions: for Plant response rating, Nutsedge: scale of 0 to 10 where 0 is no effect and 10 is complete control
Summary of the method: as §1

wheat = assay: Test B pre/postemergence wheat; type: in vivo, Triticum aestivum; conditions: for Plant response rating, Wheat: scale of 0 to 10 where 0 is no effect and 10 is complete control
Summary of the method: as §1

wild oat = assay: Test B pre/postemergence wild oat; type: in vivo, Avena fatua; conditions: for Plant response rating, Wild oats: scale of 0 to 10 where 0 is no effect and 10 is complete control
Summary of the method: as §1

duck salad = assay: Test B flood test duck salad; type: in vivo, Heteranthera limosa
Summary of the method: as §2

velvetleaf = assay: Test B pre/postemergence velvetleaf; type: in vivo, Abutilon theophrasti; conditions: for Plant response rating, Velvetleaf: scale of 0 to 10 where 0 is no effect and 10 is complete control
Summary of the method: as §1

blackgrass = assay: Test B pre/postemergence blackgrass; type: in vivo, Alopecurus myosuroides
Summary of the method: as §1

morningglory = assay: Test B pre/postemergence morningglory; type: in vivo, Ipomoea hederacea; conditions: for Plant response rating, Morningglory: scale of 0 to 10 where 0 is no effect and 10 is complete control
Summary of the method: as §1

[1] = Postemergence, Rate 250 g/ha, scale 0 to 10
[2] = Preemergence, Rate 250 g/ha, scale 0 to 10, 0 is no effect, 10 is complete control
[3] = Preemergence, Rate 500 g/ha, scale 0 to 10, 0 is no effect, 10 is complete control
[4] = Rate 62 g/ha, Postemergence, scale 0 to 10 (0 no effect, 10 complete control)
[5] = Rate 125 g/ha, Postemergence, scale 0 to 10, 0 is no effect, 10 is complete control
[6] = Postemergence, Rate 500 g/ha, scale of 0 to 10 where 0 is no effect and 10 is complete control
[7] = Preemergence, Rate 62 g/ha, scale of 0 to 10 where 0 is no effect and 10 is complete control
[8] = Preemergence, Rate 125 g/ha, scale of 0 to 10 where 0 is no effect and 10 is complete control
[9] = Rate 62 g/ha, flood test species, Pre-emergence, visual evaluation after twelve to sixteen days
[10] = Rate 125 g/ha, under heading Pre-emergence, flood test species, visual evaluation after twelve to sixteen days
[11] = Rate 250 g/ha, Pre-emergence (flood test species), scale 0 to 10, 0 is no effect, 10 is complete control
[12] = Rate 500 g/ha, Pre-emergence, flood test species, scale 0 to 10 (0 no effect, 10 complete control)

Compound: CC(C)N(C(=O)n1oc(=O)n(CCS(C)(=O)=O)c1=O)c1ccc(F)cc1 [Compound 453]
- Soybean plant response rating (soybean; [1]): 1
- Plant response rating, Soybean (soybean; Preemergence, Rate 62 g/ha): 0
- Plant response rating, Soybean (soybean; Preemergence, Rate 125 g/ha): 0
- Soybean plant response rating (soybean; [2]): 0
- Soybean plant response rating (soybean; [3]): 0
- Soybean plant response rating (soybean; [4]): 1
- Soybean plant response rating (soybean; [5]): 1
- B. signalgrass plant response rating (surinam grass; Postemergence, Rate 250 g/ha, scale 0 to 10, 0 no effect, 10 complete control): 2
- B. signalgrass plant response rating (surinam grass; [6]): 5
- Plant response rating, B. signalgrass (surinam grass; [7]): 0
- Plant response rating, B. signalgrass (surinam grass; [8]): 2
- B. signalgrass plant response rating (surinam grass; [2]): 6
- B. signalgrass plant response rating (surinam grass; [3]): 6
- B. signalgrass plant response rating (surinam grass; [4]): 0
- B. signalgrass plant response rating (surinam grass; [5]): 0
- Rape plant response rating (rape; [1]): 0
- Plant response rating, Rape (rape; Preemergence, Rate 62 g/ha): 0
- Plant response rating, Rape (rape; Preemergence, Rate 125 g/ha): 0
- Rape plant response rating (rape; [2]): 0
- Rape plant response rating (rape; [3]): 3
- Rape plant response rating (rape; [4]): 0
- Rape plant response rating (rape; [5]): 0
- Giant foxtail plant response rating (giant foxtail; [1]): 7
- Giant foxtail plant response rating (giant foxtail; [6]): 9
- Plant response rating, Giant foxtail (giant foxtail; [7]): 7
- Plant response rating, Giant foxtail (giant foxtail; [8]): 9
- Giant foxtail plant response rating (giant foxtail; [2]): 10
- Giant foxtail plant response rating (giant foxtail; [3]): 10
- Giant foxtail plant response rating (giant foxtail; [4]): 3
- Giant foxtail plant response rating (giant foxtail; [5]): 5
- Plant response rating, Barnyardgrass (0 to 10 scale, 0 is no effect, 10 is complete control) (bamyardgrass; [9]): 0
- Barnyardgrass plant response rating (0 to 10 scale, 0 is no effect, 10 is complete control) (bamyardgrass; [10]): 0
- Barnyardgrass plant response rating (bamyardgrass; [11]): 0
- Barnyardgrass plant response rating (bamyardgrass; [12]): 0
- Plant response rating, Rice (0 to 10 scale, 0 is no effect, 10 is complete control) (rice; [9]): 0
- Rice plant response rating (0 to 10 scale, 0 is no effect, 10 is complete control) (rice; [10]): 0
- Rice plant response rating (rice; [11]): 0
- Rice plant response rating (rice; [12]): 0
- Plant response rating, S. Flatsedge (0 to 10 scale, 0 is no effect, 10 is complete control) (smallflower flatsedge; [9]): 0
- S. Flatsedge plant response rating (0 to 10 scale, 0 is no effect, 10 is complete control) (smallflower flatsedge; [10]): 0
- S. Flatsedge plant response rating (smallflower flatsedge; [11]): 0
- S. Flatsedge plant response rating (smallflower flatsedge; [12]): 0
- Cocklebur plant response rating (cocklebur; [1]): 0
- Cocklebur plant response rating (cocklebur; [6]): 0
- Plant response rating, Cocklebur (cocklebur; [7]): 0
- Plant response rating, Cocklebur (cocklebur; [8]): 0
- Cocklebur plant response rating (cocklebur; [2]): 0
- Cocklebur plant response rating (cocklebur; [3]): 0
- Cocklebur plant response rating (cocklebur; [4]): 0
- Cocklebur plant response rating (cocklebur; [5]): 0
- Corn plant response rating (corn; [1]): 0
- Corn plant response rating (corn; [6]): 0
- Plant response rating, Corn (corn; [7]): 0
- Plant response rating, Corn (corn; [8]): 0
- Corn plant response rating (corn; [2]): 0
- Corn plant response rating (corn; [3]): 3
- Corn plant response rating (corn; [4]): 0
- Corn plant response rating (corn; [5]): 0
- Crabgrass plant response rating (crabgrass; [1]): 4
- Crabgrass plant response rating (crabgrass; [6]): 10
- Plant response rating, Crabgrass (crabgrass; [7]): 5
- Plant response rating, Crabgrass (crabgrass; [8]): 6
- Crabgrass plant response rating (crabgrass; [2]): 6
- Crabgrass plant response rating (crabgrass; [3]): 7
- Crabgrass plant response rating (crabgrass; [4]): 0
- Redroot pigweed plant response rating (pigweed; [1]): 0
- Plant response rating, Redroot pigweed (pigweed; Preemergence, Rate 62 g/ha): 0
- Plant response rating, Redroot pigweed (pigweed; Preemergence, Rate 125 g/ha): 4
- Redroot pigweed plant response rating (pigweed; [2]): 6
- Redroot pigweed plant response rating (pigweed; [3]): 10
- Redroot pigweed plant response rating (pigweed; [4]): 0
- Redroot pigweed plant response rating (pigweed; [5]): 0
- Sugarbeets plant response rating (sugar beet; [1]): 0
- Plant response rating, Sugarbeets (sugar beet; Preemergence, Rate 62 g/ha): 0
- Plant response rating, Sugarbeets (sugar beet; Preemergence, Rate 125 g/ha): 0
- Sugarbeets plant response rating (sugar beet; [2]): 2
- Sugarbeets plant response rating (sugar beet; [3]): 5
- Sugarbeets plant response rating (sugar beet; [4]): 0
- Sugarbeets plant response rating (sugar beet; [5]): 0
- Nutsedge plant response rating (purple nutsedge; [1]): 0
- Plant response rating, Nutsedge (purple nutsedge; Preemergence, Rate 62 g/ha): 0
- Plant response rating, Nutsedge (purple nutsedge; Preemergence, Rate 125 g/ha): 0
- Nutsedge plant response rating (purple nutsedge; [2]): 0
- Nutsedge plant response rating (purple nutsedge; [4]): 0
- Nutsedge plant response rating (purple nutsedge; [5]): 0
- Wheat plant response rating (wheat; [1]): 0
- Plant response rating, Wheat (wheat; Preemergence, Rate 62 g/ha): 0
- Plant response rating, Wheat (wheat; Preemergence, Rate 125 g/ha): 0
- Wheat plant response rating (wheat; [2]): 3
- Wheat plant response rating (wheat; [3]): 6
- Wheat plant response rating (wheat; [4]): 0
- Wheat plant response rating (wheat; [5]): 0
- Wild oats plant response rating (wild oat; [1]): 0
- Plant response rating, Wild oats (wild oat; Preemergence, Rate 62 g/ha): 0
- Plant response rating, Wild oats (wild oat; Preemergence, Rate 125 g/ha): 0
- Wild oats plant response rating (wild oat; [2]): 2
- Wild oats plant response rating (wild oat; [3]): 8
- Wild oats plant response rating (wild oat; [4]): 0
- Wild oats plant response rating (wild oat; [5]): 0
- Plant response rating, Ducksalad (0 to 10 scale, 0 is no effect, 10 is complete control) (duck salad; [9]): 0
- Ducksalad plant response rating (0 to 10 scale, 0 is no effect, 10 is complete control) (duck salad; [10]): 0
- Ducksalad plant response rating (duck salad; [11]): 0
- Ducksalad plant response rating (duck salad; [12]): 0
- Velvetleaf plant response rating (velvetleaf; [1]): 0
- Plant response rating, Velvetleaf (velvetleaf; Preemergence, Rate 62 g/ha): 0
- Plant response rating, Velvetleaf (velvetleaf; Preemergence, Rate 125 g/ha): 0
- Velvetleaf plant response rating (velvetleaf; [2]): 2
- Velvetleaf plant response rating (velvetleaf; [3]): 6
- Velvetleaf plant response rating (velvetleaf; [4]): 0
- Velvetleaf plant response rating (velvetleaf; [5]): 0
- Blackgrass plant response rating (blackgrass; [1]): 6
- Blackgrass plant response rating (blackgrass; [6]): 6
- Plant response rating, Blackgrass (blackgrass; [7]): 0
- Plant response rating, Blackgrass (blackgrass; [8]): 0
- Blackgrass plant response rating (blackgrass; [2]): 3
- Blackgrass plant response rating (blackgrass; [3]): 5
- Blackgrass plant response rating (blackgrass; [4]): 0
- Blackgrass plant response rating (blackgrass; [5]): 0
- Morningglory plant response rating (morningglory; [1]): 2
- Plant response rating, Morningglory (morningglory; Preemergence, Rate 62 g/ha): 0
- Plant response rating, Morningglory (morningglory; Preemergence, Rate 125 g/ha): 0
- Morningglory plant response rating (morningglory; [2]): 0
- Morningglory plant response rating (morningglory; [3]): 3
- Morningglory plant response rating (morningglory; [4]): 0
- Morningglory plant response rating (morningglory; [5]): 0
